From ChEMBL document CHEMBL3804809, “Fatty Acid Transport Proteins: Targeting FATP2 as a Gatekeeper Involved in the Transport of Exogenous Fatty Acids” (Medchemcomm, 2016) come the findings set out here.

Assay [1] addresses Long-chain fatty acid transport protein 2 (Homo sapiens, UniProt O14975). The experiment in a line: Inhibition of FATP2 in human HepG2 cells assessed as decrease in fatty acid transport after 5 mins by trypan blue dye based fluorescence quenching method. The assay is classed as cell-based.
Assay [2] relates to Mus musculus. The experiment in a line: Inhibition of 3C18-oleate absorption in tyloxapol-treated C57BL/6 mouse plasma at 300 mg/kg administered through gavage for 1 hr followed by 3C18-oleate addition measured after 0.5 to 6 hrs by LC/MS-MS analysis. Type of assay: functional. To be noted: C57BL/6, Plasma, po.
In assay [3] the test system is Mus musculus. Kind of assay: Downregulation of FATP2 mRNA level in […] null C57BL mouse small intestine at 0.01% administered through diet for 3 days by RT-PCR analysis. The assay is classed as functional.
Assay [4] concerns Mus musculus. The experiment in a line: Upregulation of FATP2 mRNA level in C57BL mouse small intestine at 0.01% administered through diet for 3 days by RT-PCR analysis. Type of assay: functional.
Assay [5] has as its system Mus musculus. The experiment in a line: Downregulation of FATP2 mRNA level in […] null C57BL mouse small intestine at 0.1% administered through diet for 3 days by RT-PCR analysis. The assay is classed as functional.
The subject of assay [6] is Mus musculus. Kind of assay: Upregulation of FATP2 mRNA level in C57BL mouse small intestine at 0.1% administered through diet for 3 days by RT-PCR analysis. The assay is classed as functional.

As a reminder, the IC50 is the concentration needed to halve the response being measured. In general, inhibition in vivo refers to the drop in the measured response relative to a control, in per cent. Low values mean a weak effect, high ones a strong effect.

Sequence of Long-chain fatty acid transport protein 2 (O14975 whole entry, looked up): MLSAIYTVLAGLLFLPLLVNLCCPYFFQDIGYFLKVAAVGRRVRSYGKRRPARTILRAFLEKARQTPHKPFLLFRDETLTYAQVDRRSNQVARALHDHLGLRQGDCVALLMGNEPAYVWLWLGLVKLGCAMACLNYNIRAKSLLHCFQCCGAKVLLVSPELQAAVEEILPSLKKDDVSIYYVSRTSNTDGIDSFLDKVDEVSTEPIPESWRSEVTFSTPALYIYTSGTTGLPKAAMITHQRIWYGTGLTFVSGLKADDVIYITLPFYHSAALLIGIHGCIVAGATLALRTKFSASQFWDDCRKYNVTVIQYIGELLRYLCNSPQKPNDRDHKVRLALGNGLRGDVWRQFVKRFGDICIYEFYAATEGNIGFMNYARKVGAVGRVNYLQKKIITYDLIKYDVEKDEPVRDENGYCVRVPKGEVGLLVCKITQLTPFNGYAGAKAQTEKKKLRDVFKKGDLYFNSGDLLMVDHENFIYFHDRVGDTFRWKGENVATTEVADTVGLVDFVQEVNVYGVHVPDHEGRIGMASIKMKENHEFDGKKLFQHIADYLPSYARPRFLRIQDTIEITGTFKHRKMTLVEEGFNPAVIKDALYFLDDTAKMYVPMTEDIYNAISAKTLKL

As for `O=c1cc(-c2ccc([N+](=O)[O-])cc2)[nH]c2c(-c3ccc(Cl)cc3)c(Cc3ccccc3)nn12`, in assay [1], the IC50 turned out to be 6.3 µM.
In turn, `O=C1Nc2ccc(Br)cc2C12NN=C(c1ccccc1)S2` (configuration not stated) came in with an inhibition in vivo at 300 mg/kg in assay [2] of 80%. The concentration for half-maximal inhibition (IC50) in assay [1] is 6.7 µM.
Turning to `CC(C)(Sc1ccc(CCN(CCCCC2CCCCC2)C(=O)NC2CCCCC2)cc1)C(=O)O` [GW7647], the “fold change (FC)” value in assay [3] turned out to be 2; in assay [4], 4.
As for `Cc1cccc(Nc2cc(Cl)nc(SCC(=O)O)n2)c1C` [PIRINIXIC ACID], the results for the “fold change (FC)” value in assay [5] and in assay [6] were 2 and 4, respectively.
